The values below are quoted from earlier work in patent publication US10941351B2, “Layer-separation method of spent caustic solution” (SK Innovation Co., Ltd., priority 2016, dated 2021).

The conditions of this data set: at 25° C.

Take `CCCCCCCCO` [n-Octanol, n-octanol]: the Water solubility is 460 µg/mL.
